Test results reported in patent US20100004333A1, “COMPOSITIONS AND METHODS FOR TREATING CARDIOVASCULAR DISORDERS” (priority 2004, published 2010).

What was measured:
[1] = Oxidation of probucol or DTBP in hexane by 1e- and 2e-oxidants (HPLC, ion exchange chromatography); type: physicochemical; settings: compound 1 mM in hexane, 60 min, 37° C.
apoE−/− mice = assay: Atherosclerosis in apoE−/− mice: probucol versus DTBP versus BP, 5 months; type: in vivo; settings: for Atherosclerosis (lesion size) at the arch and descending aorta: 1% probucol, 0.02% BP; for Macrophages lesion area (Mac-3+): FIG. 12a, f; for Plasma cholesterol: FIG. 12c; for Proliferating cells (PCNA+): FIG. 12g; for Aortic content of neutral lipids (cholesterylesters and triglycerides): FIG. 12d
Excerpt: ApoE−/− mouse model. Four groups of male apoE−/− mice (8-10 weeks, Animal Resources Centre, Perth, Australia) were fed a high fat diet based on Harlan Teklad diet TD88137±1% (wt/wt) probucol (96% purity, a gift from AstraZeneca, Sweden), 0.02% DTBP, or 0.02% BP (Polysciences, Warrington, Pa.) for 5 months. Tissue harvesting and analyses were done as described in Examples 1 and 3, using 15 and 10 mice of each group for biochemical and histological analyses, respectively. Histology and immunohistochemistry. Aortic lesion assessment was carried out at four sites (sinus, arch, thoracic and abdominal aorta) as described in Example 1. Immediately adjacent sections were employed for immunohistochemistry, using Mac-3 (macrophages, dilution 1:200, DAKO), PCNA (cell proliferation, dilution 1:500, DAKO) and anti-rat HO-1 monoclonal antibody (dilution 1:50, Santa Cruz) with avidin-biotin-horseradish peroxidase for signal detection (Vectorstain Elite ABC Kit, Vector Laboratories). Apoptosis was assessed using the TUNEL assay kit (Roche) according to the manufacture's instructions. Digital images were taken for quantitative morphometric analysis. Mac-3^+ areas were determined using Adobe Photoshop V6.0 by tracing. Total cell profiles, TUNEL^+ and PCNA^+ cells were counted manually at high magnification (40× objective). A single operator using coded samples performed all analyses blinded. Heme oxygenase. Heme oxygenase activity was determined in microsomes prepared from homogenized aortic tissue and assessed by HPLC as described in Circulation 2004, 110: 1855-1860. Statistics. All data are expressed as mean±SEM. One-way ANOVA and the student-Newman-Keul's test were used to evaluate differences between groups, with P<0.05 considered significant.

[2] = system: New Zealand White rabbits; assay: Rabbit aortic balloon-injury model: intimal hyperplasia; type: in vivo; settings: for Intimal thickening / intima-to-media ratio after aortic balloon injury: 1% probucol, 0.02% DTBP, 0.02% BP, FIG. 13a, b; for Plasma total cholesterol concentration: rabbits, FIG. 13e
Protocol: Rabbit aortic balloon-injury model. Four groups of male New Zealand White rabbits (1.8-2.2 kg, Merunga Farm, Coffs Harbour, Australia), matched for body weight and baseline plasma cholesterol, were fed 100 g per day of normal chow±1% probucol, 0.02% DTBP, or 0.02% BP (wt/wt) for up to nine weeks. Aortic balloon-injury (ABI) was carried out at the end of week three, resulting in complete endothelial denudation. Harvesting of aortas was done after a further 6 weeks (n=6 per group). Aortic lesion assessment was carried out at the 3rd pair of lumber arteries in NZW rabbits as described in Circulation 2003, 107:2031-2036. Statistics. Data are expressed as mean±SEM. One-way ANOVA and the student-Newman-Keul's test were used to evaluate differences between groups, with P<0.05 considered significant.
Materials and methods were as described in Examples 6 and 7, with the following addition. DTBP-s and STBP were synthesized as described in Example 10. A total of 48 New Zealand White rabbits (1.8-2.2 kg) were used for this example. Rabbits were fed normal chow (100 g/day) without (Ctrl, n=12) or with 0.02% DTBP (wt/wt, n=6), 0.02% STBP (wt/wt, n=7), 0.02% DTBP-s (wt/wt, n=11) or 0.1% DTBP-s (wt/wt, n=7) for 9 weeks. Aortic balloon-injury was carried out at the end of week three.

[3] = Stopped-flow kinetics of reaction with HOCl in 70% aqueous ethanol; type: physicochemical; settings: 70% EtOH, 25° C.

| Structure (SMILES) | DPQ Yield ([1]; oxidant AAPH 5 mM) [µM] | DPQ Yield ([1]; oxidant Ce^4+ 5 mM) [µM] | Depletion ([1]; oxidant Ce^4+ 5 mM) [%] | DPQ Yield ([1]; oxidant Cu^2+ 5 mM) [µM] | Depletion ([1]; oxidant Cu^2+ 5 mM) [%] | DPQ Yield ([1]; oxidant Fe^2+/H2O2 5 mM) [µM] | Depletion ([1]; oxidant Fe^2+/H2O2 5 mM) [%] | DPQ Yield ([1]; oxidant H2O2 5 mM) [µM] | Depletion ([1]; oxidant H2O2 5 mM) [%] | DPQ Yield ([1]; oxidant HOCl 5 mM) [µM] | DPQ Yield ([1]; oxidant ONOO^− 5 mM) [µM] | Depletion ([1]; oxidant ONOO^− 5 mM) [%] | DPQ Yield ([1]; oxidant PbO2 5 mM) [µM] | Depletion ([1]; oxidant PbO2 5 mM) [%] | Atherosclerosis (lesion size) at the arch and descending aorta (apoE−/− mice; 0.02% DTBP, 5 months, FIG. 12b) | Macrophages lesion area (Mac-3+) (apoE−/− mice; apoE−/− mice, 5 months) | Plasma cholesterol (apoE−/− mice; apoE−/− mice, 5 months) | Proliferating cells (PCNA+) (apoE−/− mice; apoE−/− mice, 5 months) | Intimal thickening / intima-to-media ratio after aortic balloon injury ([2]; 6 weeks after ABI) | Plasma total cholesterol concentration [2] | further results |
| --- | --- | --- | --- | --- | --- | --- | --- | --- | --- | --- | --- | --- | --- | --- | --- | --- | --- | --- | --- | --- | --- |
| CC(C)(C)c1cc(SSc2cc(C(C)(C)C)c(O)c(C(C)(C)C)c2)cc(C(C)(C)C)c1O [DTBP, 4,4′-dithiobis(2,6-di-tert-butyl-phenol)] | 0 ± 0 | 89 ± 11 | 16 ± 1 | 0 ± 0 | 0 ± 0 | 4.8 ± 3.7 | 1 ± 0 | 0 ± 0 | 0 ± 0 | 91 ± 8.7 | 1.9 ± 0.6 | 6 ± 1 | 145 ± 8.9 | 99 ± 0.4 | significantly inhibited | significant decrease | did not increase medium lesion size at the aortic root (FIG. 12b) or affect plasma cholesterol | significant decrease | significantly decreasing | without effect | Lesion size at the aortic root (apoE−/− mice; 0.02% DTBP, 5 months, FIG. 12b): did not increase; HDL-cholesterol (apoE−/− mice; apoE−/− mice, 0.02% DTBP, 5 months, FIG. 12h): does not lower HDL-cholesterol; Aortic content of neutral lipids (cholesterylesters and triglycerides) (apoE−/− mice; apoE−/− mice, 5 months): decreased; Anti-atherosclerotic activity relative to probucol (apoE−/− mice; judged from aortic drug concentration and lesion inhibition): greater anti-atherosclerotic activity than probucol; Protection against balloon injury-induced intimal hyperplasia ([2]; 0.02% wt/wt in chow, 9 weeks, ABI at end of week three, FIG. 21): significant protection; Vessel content of non-oxidized lipid ([2]; 6 weeks after ABI, FIG. 13c): without altering; Vessel content of oxidized lipid ([2]; 6 weeks after ABI, FIG. 13d): without altering; Protection against balloon injury-induced intimal hyperplasia, dependence on concentration ([2]; I/M ratio 6 weeks after ABI, FIG. 14): in a concentration-dependent manner; Activity on a molar base relative to probucol ([2]; from relative aortic drug concentrations and in vivo protection): more active than probucol; Rate constant k for oxidation by HOCl (single rate-determining process) [3]: 0.7±0.1×10^2 M^−1 s^−1 |
| CC(C)(C)c1cc(-c2cc(C(C)(C)C)c(O)c(C(C)(C)C)c2)cc(C(C)(C)C)c1O [BP, 3,3′,5,5′-tetra-tert-butyl-4,4′-bisphenol] |  |  |  |  |  |  |  |  |  |  |  |  |  |  | failed | failed to affect | failed | failed to affect | lacked protective activity | significantly reduced |  |
| CC(C)(Sc1cc(C(C)(C)C)c(O)c(C(C)(C)C)c1)Sc1cc(C(C)(C)C)c(O)c(C(C)(C)C)c1 [probucol] | 0 ± 0 | 78 ± 7.9 | 15 ± 2 | 0.9 ± 0.1 | 2 ± 1 | 8.7 ± 1.7 | 3 ± 1 | 0 ± 0 | 0 ± 0 | 102 ± 11 | 2.1 ± 0.2 | 7 ± 1 | 92 ± 21 | > 90 | significantly inhibited | significant decrease |  | significant decrease | Inhibit Intimal Thickening | significantly reduced | Depletion ([1]; oxidant HOCl 5 mM, air): 98 ± 4%; Depletion ([1]; oxidant PbO2 5 mM, listed as Probucol): 99 ± 1.1%; Aortic content of neutral lipids (cholesterylesters and triglycerides) (apoE−/− mice; apoE−/− mice, 5 months): decreased; Rate constant k1 for oxidation by HOCl (rapid phase of DPQ accumulation) [3]: 2.7±0.3×10^2 M^−1 s^−1; Rate constant k2 for oxidation by HOCl (slow phase of DPQ accumulation) [3]: 0.7±0.2×10^2 M^−1 s^−1 |
